This is an account of results in patent US7875638B2, “Synthesis of epothilones, intermediates thereto, analogues and uses thereof” (Sloan-Kettering Institute for Cancer Research, priority 2002, dated 2011).

Each structure is given as a SMILES string. In brackets after ≈: the same amount, converted by molar mass. Where two headings read alike, the source gives them in different places.

One series has as its system CCRF-CEM/Taxol. In kind it is cell-based, human. Particulars: Homo sapiens, CCRF-CEM, XTT assay following 72 h inhibition.
Series [1] is described as follows: Octanol-water partition (POW) number by HPLC. Particulars: HPLC estimate, pH 7.4 buffer; read-out: Lipophilicity octanol/water partition (POW). In kind it is physicochemical. On the procedure:
Determination of partition of octanol-water (POW) number. An HPLC method is used to estimate octanol-water partition. An Agilent 1100 HPLC system is used with an eclipse XDB C18 column 4.6×250 mm with a mobile phase of 60% acetonitrile/40% 25 mM potassium phosphate buffer at pH 7.4 with a flow rate of 0.8 ml per min. and the eluent is monitored at 250 nm. The standards used are benzyl alcohol, acetophenone, benzophenone, naphthalene, diphenyl ether and dibenzyl with known POW of […] respectively. Sodium dichromate is used to evaluate time zero which is 2.5 min and the retention times for the standards are 3.9, 5.4, 10.6, 14, 18.7 and 19.8 min, respectively. The k value is calculated by the formula of k=(trt−t0)/t0. Linear regression of log k vs. log POW gives a straight line with r^2=0.966. This graph is used to evaluate the POW value of the epothilone analogs.

For series [2], the system named is CCRF-CEM. Particulars: for IC50: XTT assay following 72 h inhibition.
Procedure: (§1) Cytotoxicity Assays. In preparation for in vitro cytotoxicity assays, cells were cultured at an initial density 2-5×10^4 cells per milliliter. […] For both methods, the absorbance of each well was measured with a microplate reader (Power Wave XS, Bio-Tek, Winooski, Vt.).
(§2) A typical experiment involves culturing cells (e.g., CCRF-CEM) at an initial density of 2-5×10^4 cells per ml. […] For cells that were grown in suspension (such as CCRF-CEM and its sublines), cytotoxicitiy is measured by using the 2,-3-bis(2-methoxy-4-nitro-5-sulfophenyl)-5 carboxanilide)-2H terazodium hydroxide (XTT)-microculture tetrazonium method in duplicate in 96-well microtiter plates. For both methods, the absorbance of each well is measured with a microplate reader (EL-340, Bio-Tek, Burlington, Vt.). Each run entails six or seven concentrations of the tested drugs. Dose-effect relationship data are analyzed with the median-effect plot.
(§3) Cytotoxicity Assays: In preparation for in vitro cytotoxicity assays, cells were cultured at an initial density 2-5×10^4 cells per milliliter. […] For both methods, the absorbance of each well was measured with a microplate reader (Power Wave XS, Bio-Tek, Winooski, Vt.).
Series [3] has as its system human xenografts in nude mice, such as MX-1. Further details: Relative therapuetic index at MTD: key to the marks not given beside the values.
In series [4] the test system is human mammary carcinoma MX-1 xenograft.
Series [5] in a line: in vitro. As to conditions: mouse, mouse plasma.
Procedure: (§4) Stability of epothilones in mouse and in human liver S9 fraction. The stability study was carried out with a fully automated HPLC system which consisted of a Prospekt-2 (Spark Holland, Netherlands) sample preparation system and an Agilent 1100 HPLC system. Briefly, the Prospekt 2 picked up a C8 extraction cartridge and washed it with acetonitrile and water. The Agilent autosampler, set at 37° C., picked up 20 μl of the sample, loaded it onto the cartridge, washed it with water, then the Prospekt-2 diverted the mobile phase stream through the extraction cartridge onto the analytical column, Reliance Stable Bond C8 4×80 mm with guard column (MacMod, Chadds Ford, Pa.) and the eluent was monitored at 250 nm. […] Sample preparation involved the addition of equal volumes of plasma to PBS for a total volume of 300-400 μl, filtered, and the addition of 0.5-2 μl of the substrate (20 mM) to achieve about 30-50 mAU at 250 nm in the HPLC analysis. For pooled human liver microsome S9 fraction (Xeno Tech, Lenex, Kans.), 20 μl (400 μg) or S9 fraction was mixed with 280 μl of PBS then proceeded as above. The sampling period was controlled by the autosampler and peak area data were collected to compare the rate of disappearance of the parent compound.
(§5) Stability of epothilones in mouse and in human liver S9 fraction: The stability study was carried out with a fully automated HPLC system which consisted of a Prospekt-2 (Spark Holland, Netherlands) sample preparation system and an Agilent 1100 HPLC system. Briefly, the Prospekt 2 picked up a C8 extraction cartridge and washed it with acetonitrile and water. The Agilent autosampler, set at 37° C., picked up 20 μl of the sample, loaded it onto the cartridge, washed it with water, then the Prospekt-2 diverted the mobile phase stream through the extraction cartridge onto the analytical column, Reliance Stable Bond C8 4×80 mm with guard column (MacMod, Chadds Ford, Pa.) and the eluent was monitored at 250 nm. […] Sample preparation involves the addition of equal volumes of plasma to PBS for a total volume of 400 μl, filtered, and the addition of 0.5-2 μl of the substrate (20 mM) to achieve about 30-50 mAU at 250 nm in the HPLC analysis. For pooled human liver microsome S9 fraction (Xeno Tech, Lenex, Kans.), 20 μl (400 μg) or S9 fraction was mixed with 280 μl of PBS then proceeds as above. The sampling period was controlled by the autosampler and peak area data were collected to compare the rate of disappearance of the parent compound.
Series [6] can be described thus: in vitro. Particulars: human, pooled human liver S9 fraction.
Procedure: as §4, §5
In series [7] the test system is human mammary carcinoma MX-1 xenograft. The series is described as follows: MX-1 xenograft in nude mice. Particulars: mouse, in vivo.
Series [8] deals with CCRF-CEM. Particulars: human, CCRF-CEM leukemic cells, 72 h.
Procedure: as §1, §2, §3

As to `C/C1=C/C[C@@H](/C(C)=C/c2csc(C)n2)OC(=O)C[C@H](O)C(C)(C)C(=O)[C@H](C)[C@@H](O)[C@@H](C)/C=C/C1` [Compound 28, trans-9,10-dehydro-12,13-desoxyepothilone B], the IC50 in the series on CCRF-CEM/Taxol (Table 1-2, read-out: IC50 (μM), CCRF-CEM/Taxol) was 0.0017 µM; in the series on CCRF-CEM/Taxol (Table 1-3, read-out: IC50, C/Taxol), 0.0012 µM; in the series with CCRF-CEM/Taxol (Table 1-4, read-out: IC50, CCRF-CEM/Taxol) it was 0.0012 µM; in the series on CCRF-CEM [2] (Table 1-2), 1.4 nM; with CCRF-CEM [2] (Table 1-3), 0.9 nM; in the series with CCRF-CEM [2] (Table 1-4), 0.9 nM. This compound also displayed an IC50 in the series with CCRF-CEM [8] of 0.9 ± 0.4 nM. In series [1], the chromatographic logP is 3.3. Further, in the series with CCRF-CEM [2], the “IC50 in vitro (FIG. 94)” value is on record as “sub-nanomolar”. Further, the “Potency in direct comparison with dEpoB (1)” value in the series on CCRF-CEM [2] (tumor cell lines of Table 1-2) is reported as “nearly three times more potency”. Moreover, the “Relative therapuetic index at MTD” value in series [3] (graded at maximal tolerated dose) was “++++”. Moreover, in [3] (mouse, in vivo), the “Antitumor effect in human solid tumor xenograft models” value was “strongly suppressed tumor growth”. Further, in series [3] (mouse, in vivo), the “Dose accomplishing complete suppression of tumor in a variety of xenografts” value is recorded as 3 mg/kg. Also, in series [3] (mouse, in vivo), the “Efficacy compared with dEpoB” value is listed as “three times more efficacious”. In series [3] (mouse, in vivo), the “Maximal b.w. % drop without death” value is recorded as 29%. In [3] (mouse, in vivo, iv), the “Therapeutic dose regimen for Q2D 6 hr-iv infusion” value was in the range of 3 to 4 mg/kg. Moreover, in [4], the “Enhancement of drug potency in xenograft experiments with MX-1 tumors” value is recorded as “ca. 10 fold”. Besides, the half-life was 1.4 ± 0.1 h in the series “in vitro [5]” and 4.9 ± 0.7 h in the series “in vitro [6]”. The “Water solubility relative to other epothilones” value in “Solubility in water” is recorded as “greatly increased water solubility”. The compound further returned a solubility in the series “Solubility in water” (water) of 27 µg/mL (≈ 55.1 µM). Further, the “Therapeutic effect on MX-1 xenograft” value in series [7] is given as “tumor disappearance”.
